Test results as given in patent US20260109672A1, “SARS-COV-2 MPRO INHIBITORS AND USES THEREOF” (NXERA PHARMA UK LIMITED, priority 2022, published 2026).

biological target: SARS-CoV-2 Mpro (Severe acute respiratory syndrome coronavirus 2, UniProt P0DTD1); test: Modified SARS-CoV-2 Mpro enzyme assay (FRET, kinetic read) for reference examples; format: biochemical; details: 5 nM Mpro, 20 min preincubation at room temperature, mean n=2, set out in PCT/GB2022/050836

Substance	SARS-CoV-2 Mpro enzyme pKi assay pKi
(1R,2S,5S)-N-(4-(cyclopropylamino)-3,4-dioxo-1-((S)-2-oxopyrrolidin-3-yl)butan-2-yl)-3-((E)-3-(2,4-difluorophenyl)acryloyl)-6,6-dimethyl-3-azabicyclo[3.1.0]hexane-2-carboxamide [Example 7]	6.7
(1R,2S,5S)-N-(4-(cyclopropylamino)-3,4-dioxo-1-((S)-2-oxopyrrolidin-3-yl)butan-2-yl)-3-((S)-3,3-dimethyl-2-(2,2,2-trifluoroacetamido)butanoyl)-6,6-dimethyl-3-azabicyclo[3.1.0]hexane-2-carboxamide [Example 1]	7.8
(1R,2S,5S)-N-[1-(cyclopropylmethyl)-3-(methylamino)-2,3-dioxo-propyl]-3-[(2S)-3,3-dimethyl-2-[(2,2,2-trifluoroacetyl)amino]butanoyl]-6,6-dimethyl-3-azabicyclo[3.1.0]hexane-2-carboxamide [Example 2]	7.3
(1R,2S,5S)-N-[3-(cyclopropylamino)-2,3-dioxo-1-[(3S)-2-oxopyrrolidin-3-yl]methyl]propyl]-3-[(2S)-3,3-dimethyl-2-(2-methylpropanoylamino)butanoyl]-6,6-dimethyl-3-azabicyclo[3.1.0]hexane-2-carboxamide [Example 5]	6.8
(1R,2S,5S)-N-[3-(cyclopropylamino)-2,3-dioxo-1-[[(3R)-2-oxo-3-piperidyl]methyl]propyl]-3-[(2S)-3,3-dimethyl-2-[(2,2,2-trifluoroacetyl)amino]butanoyl]-6,6-dimethyl-3-azabicyclo[3.1.0]hexane-2-carboxamide [Example 6]	6.7
(1R,2S,5S)-N-[3-amino-1-(cyclobutylmethyl)-2,3-dioxo-propyl]-3-[(2S)-3,3-dimethyl-2-[(2,2,2-trifluoroacetyl)amino]butanoyl]-6,6-dimethyl-3-azabicyclo[3.1.0]hexane-2-carboxamide [Example 4]	7.3
(1R,2S,5S)-N-[3-amino-1-(cyclopropylmethyl)-2,3-dioxo-propyl]-6,6-dimethyl-3-[(2S)-3-methyl-2-[(2,2,2-trifluoroacetyl)amino]butanoyl]-3-azabicyclo[3.1.0]hexane-2-carboxamide [Example 3]	7.1
